Reference: US10450314B2, “Pteridine derivatives as modulators of ROR gamma” (Boehringer Ingelheim International GmbH, priority 2015, dated 2019)

Experiments:
[1] = target: T1, RORγ (Homo sapiens, UniProt P51449); assay: RORγ Reporter Gene Assay (RGA), luciferase transactivation in transiently transfected HEK 293 cells; format: cell-based; conditions: HEK 293 cells cotransfected with pGL4.3 luc2P/GAL4UAS and pBIND Gal4DBD hRORC LBD; 20-24 h incubation
T1 construct: expressed in transfected cells; host or cells: HEK 293 cells, transiently cotransfected with pGL4.3 luc2P/GAL4UAS/Hygro reporter
T1 sequence (P51449 269-508 limits assumed): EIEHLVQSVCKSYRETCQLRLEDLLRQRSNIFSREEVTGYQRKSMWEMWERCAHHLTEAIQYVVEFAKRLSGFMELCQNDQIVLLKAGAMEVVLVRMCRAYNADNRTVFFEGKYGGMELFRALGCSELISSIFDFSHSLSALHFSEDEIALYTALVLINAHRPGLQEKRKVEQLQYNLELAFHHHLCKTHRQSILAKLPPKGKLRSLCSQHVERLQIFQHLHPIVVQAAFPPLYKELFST
Procedure: Reporter Gene Assay (RGA)
A nuclear receptor transactivation assay is performed to quantitate the ability of test compounds to inhibit RORγ transactivation of a luciferase reporter. A similar assay is described in: Khan et al., Bioorganic & Medicinal Chemistry Letters 23 (2013), 532-536. The system uses transiently transfected HEK 293 cells cotransfected with two plasmids (pGL4.3, luc2P/GAL4UAS/Hygro, and pBIND, Gal4DBD hRORC LBD1-3). The positive control is co-transiently transfected with both plasmids, and the negative control contains the pGL4.3 promoter sequence. Assays are assembled in 384 well plates where transiently transfected cells and test compound at varying concentrations are incubated for 20-24 h. The next day, assays plates are taken out and equilibrated at RT for 20-30 minutes. Bright-Glo™ Luciferase Assay System is used to detect Luciferase production. After addition of Bright GLO detection reagent, the plates are incubated at RT for 20 minutes. The plates are read on an Envision plate reader to measure luminescence signal. The RLU signal is converted to POC relative to control and blank wells.
Compound Dilution Buffer:
Bright Glo Luciferase Assay System: Promega #E2620
Thaw lysis buffer provided in kit, add 100 mL lysis buffer to substrate powder.

[2] = Human liver microsome (HLM) metabolic stability assay; format: in vitro ADME; conditions: human liver microsomes, 1 uM compound, 37° C., 60 min; % hepatic blood flow
Procedure: Assessment of Metabolic Stability
The 5 time point, high-throughput human liver microsome (HLM) metabolic stability assay is designed to determine in vitro compound metabolism. Compounds are incubated with HLMs at a concentration of 1 uM, at 37° C., for a total of 60 min. The percent of compound remaining at 5, 15, 30, and 60 min is used to calculate the t1/2 (min), CLint (mL/min/kg), CLh (mL/min/kg), and % Qh. The assay is based on a 96-well format and can accommodate up to 92 compounds per plate (n=1).
Using the 96-well multi-channel head, the Biomek FX, equipped with a Peltier heating block/shaker, is programmed to accomplish the following steps: • 1. Pipette 175 uL of 1.15 mg/mL microsomes into each of the 96 conical inserts (Analytical Sales and Products, catalog number 96PL05) that fit into the plate of the Peltier heating block/shaker (the incubation plate) • 2. Add 5 uL of compounds from the assay plate to the microsomes and shake the mixture at 600 rpm at 42.1° C. for 10 min (a setting of 42.1° C. on the Peltier is required for the samples to incubate at 37° C.) • 3. After 10 min, prompt the user to add the NADPH plate to the deck and add 20 uL from the NADPH plate to the incubation plate to start the reaction • 4. Add 215 uL of 100%, cold acetonitrile containing an internal standard(s) to a 0 minute, 5 minute, 15 minute, 30 minute, and 60 minute “quench” plate • 5. At 0 min, 5 min, 15 min, 30 min, and 60 min into the incubation, aspirate 12 uL from the incubation mixture and add it to the quench solution to stop the reaction • 6. Add 185 uL HPLC grade water to each well of the 0, 5, 15, 30 and 60 minute quench plates to dilute compounds to the appropriate concentration for the mass spectrometer
After all time points are collected, the quench plates are sealed with 96-well pierceable plate mats or heat sealing foil and centrifuged at 3000 rpm for 15 min to pellet the microsomes.
The plates are analyzed using LC/MS/MS with electron spray ionization (ESI) and the previously determined MRM transitions. The LC method includes the following parameters:
Using an Excel template in Activitybase, the peak areas corresponding to 5, 15, 30 and 60 min are compared to the peak area at 0 min to calculate the percent of remaining compound using the following equation:
Percent compound remaining=(AUC at Time t min/AUC at Time 0 min)×100 where t=0, 5, 15, 30 or 60 min.
Time (min) is plotted against the natural logarithm (Ln) of the percent compound remaining to determine the slope. The slope is used to calculate t1/2 (min) using the equation, t1/2=0.693/slope.
Clint, Intrinsic Clearance

| SMILES | IC50 [1] [µM] | HLM (% Qh) [2] [% Qh] |
| --- | --- | --- |
| CCS(=O)(=O)c1ccc(CNc2nc3c(C)nc(-c4c(C)ncnc4C4CC4)nc3n([C@@H](C)CF)c2=O)cn1 [Example 50] | 2.7 | <24 |
| CC[C@@H](C)n1c(=O)c(NCc2ccc(S(=O)(=O)CC)cn2)nc2c(CO)nc(-c3c(C)ncnc3C3CC3)nc21 [Example 51] | 0.23 | <24 |
| CC[C@@H](C)n1c(=O)c(NCc2ccc(S(C)(=O)=O)cn2)nc2c(CO)nc(-c3c(C)ncnc3C3CC3)nc21 [Example 52] | 0.335 | <24 |
| CC[C@@H](C)n1c(=O)c(NCc2ccc(S(=O)(=O)CC)cn2)nc2c(CF)nc(-c3c(C)ncnc3C3CC3)nc21 [Example 53] | 0.16 | 33 |
| CC[C@@H](C)n1c(=O)c(NCc2ccc(S(C)(=O)=O)cn2)nc2c(CF)nc(-c3c(C)ncnc3C3CC3)nc21 [Example 54] | 0.225 | 41 |
| CC[C@@H](C)n1c(=O)c(NCc2cnc(S(C)(=O)=O)cn2)nc2c(C)nc(-c3c(C)ncnc3C3CC3)nc21 [Example 55] | 0.265 | <24 |
| CC[C@@H](C)n1c(=O)c(NCc2ncc(S(C)(=O)=O)cn2)nc2c(C)nc(-c3c(OC)ncnc3C3CC3)nc21 [Example 56] | 1.1 | <24 |
| CC[C@@H](C)n1c(=O)c(NCc2ncc(S(C)(=O)=O)cn2)nc2c(C)nc(-c3c(C)ncnc3C3CC3)nc21 [Example 57] | 0.5 | <24 |
| CC[C@@H](C)n1c(=O)c(NCC2CCN(S(C)(=O)=O)CC2)nc2c(C)nc(-c3c(C)ncnc3C3CC3)nc21 [Example 59] | 0.098 | 78 |
| CC[C@H](C)n1c(=O)c(NCc2ccc(S(=O)(=O)CC)nc2)nc2c(C)nc(-c3c(OC)ncnc3C3CC3)nc21 [Example 63] | 0.1 | <24 |
| CC[C@H](C)n1c(=O)c(NCc2ccc(S(=O)(=O)CC)nc2)nc2c(C)nc(-c3c(C)ncnc3C3CC3)nc21 [Example 64] | 0.095 | <24 |
| COc1ncnc(C2CC2)c1-c1nc(C)c2nc(NCc3ccc(S(N)(=O)=O)cn3)c(=O)n(CC(C)C)c2n1 [Example 70] | 1.3 | <24 |
| CC[C@@H](C)n1c(=O)c(NCc2ccc(S(C)(=O)=O)nc2)nc2c(C)nc(-c3c(C)ncnc3C3CC3)nc21 [Example 72] | 0.205 | <24 |
| CC[C@@H](C)n1c(=O)c(NCc2ccc(S(C)(=O)=O)cn2)nc2c(C)nc(-c3c(C)ncnc3C3CC3)nc21 [Example 73] | 0.155 | <24 |
| CC[C@@H](C)n1c(=O)c(NCc2ccc(S(N)(=O)=O)cn2)nc2c(C)nc(-c3c(C)ncnc3C3CC3)nc21 [Example 76] | 0.275 | 34 |
| CCS(=O)(=O)c1ccc(CNc2nc3c(C)nc(-c4c(OC)ncnc4C4CC4)nc3n(CC(C)C)c2=O)cn1 [Example 78] | 0.275 | <24 |
| CCS(=O)(=O)c1ccc(CNc2nc3c(C)nc(-c4c(C)ncnc4C4CC4)nc3n([C@@H](C)C(F)(F)F)c2=O)nc1 [Example 79] | 0.13 | <24 |
| CCS(=O)(=O)c1ccc(CNc2nc3c(C)nc(-c4c(C)ncnc4C4CC4)nc3n([C@@H](C)C(F)(F)F)c2=O)cn1 [Example 82] | 0.225 | <24 |
| CC[C@H](C)n1c(=O)c(NCc2ccc(S(C)(=N)=O)cc2)nc2c(C)nc(-c3c(OC)ncnc3C3CC3)nc21 (stereo partly shown) [Example 83] | 0.25 | 32 |
| CC[C@H](C)n1c(=O)c(NCc2ccc(S(C)(=N)=O)cc2)nc2c(C)nc(-c3c(C)ncnc3C3CC3)nc21 (stereo partly shown) [Example 84] | 0.195 | 33 |

The remaining lines, values ahead:

| IC50 [1] [µM] | HLM (% Qh) [2] [% Qh] | SMILES |
| --- | --- | --- |
| 0.071 | <24 | CC[C@H](C)n1c(=O)c(NCc2ccc(S(=O)(=O)CC)cn2)nc2c(C)nc(-c3c(OC)ncnc3C3CC3)nc21 [Example 58] |
| 0.08 | <24 | CC[C@H](C)n1c(=O)c(NCc2ccc(S(=O)(=O)CC)cn2)nc2c(C)nc(-c3c(C)ncnc3C3CC3)nc21 [Example 60] |
| 0.185 | <24 | Cc1ncnc(C2CC2)c1-c1nc(C)c2nc(NCc3ccc(S(N)(=O)=O)cn3)c(=O)n([C@@H](C)C3CC3)c2n1 [Example 61] |
| 0.125 | 27 | COc1ncnc(C2CC2)c1-c1nc(C)c2nc(NCc3ccc(S(N)(=O)=O)cn3)c(=O)n([C@@H](C)C3CC3)c2n1 [Example 62] |
| 0.135 | <24 | CC[C@@H](C)n1c(=O)c(NCc2ccc(S(=O)(=O)CC)cn2)nc2c(C)nc(-c3c(C)ncnc3C3CC3)nc21 [Example 65] |
| 0.064 | 25 | CCS(=O)(=O)c1ccc(CNc2nc3c(C)nc(-c4c(OC)ncnc4C4CC4)nc3n([C@@H](C)C3CC3)c2=O)cn1 [Example 66] |
| 0.11 | <24 | COc1ncnc(C2CC2)c1-c1nc(C)c2nc(NCc3ccc(S(C)(=N)=O)cc3)c(=O)n([C@@H](C)C3CC3)c2n1 (stereo partly shown) [Example 67] |
| 0.065 | 35 | CCS(=O)(=O)c1ccc(CNc2nc3c(C)nc(-c4c(OC)ncnc4C4CC4)nc3n([C@@H](C)C3CC3)c2=O)nc1 [Example 71] |
| 0.077 | <24 | CCS(=O)(=O)c1ccc(CNc2nc3c(C)nc(-c4c(C)ncnc4C4CC4)nc3n([C@@H](C)C3CC3)c2=O)cn1 [Example 74] |
| 0.68 | <24 | CCS(=O)(=O)c1ccc(CNc2nc3c(C)nc(-c4c(OC)ncnc4C4CC4)nc3n(C(C)C)c2=O)nc1 [Example 77] |
| 0.255 | <24 | CCS(=O)(=O)c1ccc(CNc2nc3c(C)nc(-c4c(OC)ncnc4C4CC4)nc3n(CC(C)C)c2=O)nc1 [Example 80] |
| 0.185 | <24 | CC[C@H](C)n1c(=O)c(NCc2ccc(S(N)(=O)=O)cn2)nc2c(C)nc(-c3c(OC)ncnc3C3CC3)nc21 [Example 81] |
